Measurements as given in US8017350B2, “Glimepiride- and insulin-induced glycosylphosphatidylinositol-specific phospholipase C regulation” (Sanofi-Aventis Deutschland GmbH, priority 2004, dated 2011).
Entries after “also recorded” stand apart in the source; their conditions may differ.

Tests used:
[1] = tested on: Hormone-sensitive lipase (HSL); experiment: hormone-sensitive lipase assay (radiolabeled triolein emulsion); format: biochemical; conditions: 50 μM
Description: Hormone-sensitive lipase (HSL) and lipoprotein lipase (LPL) were measured using a radiolabeled triolein droplet emulsion as described in “Vertesy et al., (2002) Journal Antibiotics 55:480-494”. Pancreatic lipase (PL) was determined by incubation of 0.25 mmol tributyrin in 2 ml of 5 mM Tris/HCl (pH 6.5), 6 mM sodium taurodeoxycholate, 150 mM NaCl, 1 mM CaCl2 with porcine PL and colipase in the same buffer using a recording pH stat (stirring at 1000 rpm at 25° C.) with the pH adjusted to 6.5. PC-PLC was assayed by incubation of 0.2 ml of 10 mM dipalmitoyllecithin, 0.1 ml of 10 mM SDC and 0.1 ml of 0.03 M CaCl2 with bacterial PC-PLC (in 50 mM Tris/HCl, pH 7.5, 0.1% BSA) for 10 min at 37° C. The reaction was terminated by addition of 0.1 ml of 50% TCA and subsequently of 2.5 ml of […]. After centrifugation (1500×g, 15 min), 0.2-ml portions of the upper methanol/water phase (˜1.33 ml) were removed, supplemented with 0.5 ml of 60% HClO4, then heated at 170° C. for 1 h and finally analyzed for inorganic phosphate. Mammalian PI-PLC was measured by incubation of 0.1 ml of 10 mM PI, 0.1 ml of 0.8% sodium deoxycholate, 0.1% BSA, 0.2 ml of 100 mM sodium borate (pH 7.5) and rat liver PI-PLC for 20 min at 37° C. The reaction was terminated and further processed as described for the PC-PLC. […] Radioactive phosphatidic acid was detected by phosphorimaging. […]

[2] = tested on: pp59Lyn and Gce1 interaction with caveolin-1 in rat adipocytes; experiment: dissociation of signaling proteins from caveolin (caveolin-1 immunoprecipitates of hcDIGs); format: cell-based; conditions: 50 μM
Description: Solubilized DIGs (see above, 5-20 μg protein) were precleared by incubation with protein A/G-Sepharose and subsequent centrifugation (10,000×g, 5 min). The supernatant was incubated with anti-caveolin-1 antibodies (1:1000) preadsorbed on protein A/G-Sepharose in 1 ml of 10 mM Tris/HCl (pH 7.4), 150 mM NaCl, 1% TX-100 for 1 h at 4° C. The immune complexes were washed twice with the same buffer and then twice with buffer lacking TX-100 and finally subjected to SDS-PAGE performed in the absence of β-mercaptoethanol. The recovery of immunoprecipitated caveolin was normalized by homologous immunoblotting with anti-caveolin antibodies of the same blot following stripping of the membrane.
Polypeptides separated by SDS-PAGE were transferred to polyvinylidene difluoride membranes using the semidry procedure as described in “Müller, G. et al., (2001) Mol. Cell. Biol. 21: 4553-4567”. Washed membranes were incubated with anti-caveolin-1 (1:2000), anti-pp59^Lyn (1:1250), anti-aP (1:500), anti-5′-Nuc (1:750) and anti-IRS-1 (1:2000) antibodies for 4 h at 15° C. Washed membranes were incubated with horseradish peroxidase-coupled secondary goat anti-mouse (1:2000) or goat anti-rabbit IgG (1:4000) antibodies. Labeled proteins were visualized by enhanced chemiluminescence.
FIG. 6: Effect of GPI-2350 on the glimepiride/insulin-induced dissociation of signaling proteins from caveolin. Isolated rat adipocytes were treated (5 min, 37° C.) without or with GPI-2350 (left panels, 50 μM; right panels, increasing conc.) and then incubated (120 min, 37° C.) in the absence or presence of insulin (10 nM) or glimepiride (20 μM). hcDIGs were prepared from the adipocytes and then solubilized. Caveolin-1 immunoprecipitates prepared from the solubilized hcDIGs were assayed for the presence of pp59^Lyn and Gce1 by immunoblotting and photoaffinity-labeling, respectively. […]

CCCCCCCCCCCCP1(=O)O[C@@H]2[C@H](O)[C@@H](O)[C@H](O)[C@@H](O)[C@@H]2O1 (some centres unmarked) [GPI-2350, myo-inositol-1,2-cyclo-dodecylphosphonic acid]
effect on HSL [1]: not significantly affected
effect on insulin-/glimepiride-induced dissociation of pp59Lyn and Gce1 from caveolin [2]: completely abrogated; also recorded: almost complete blockade
